# Target: T1, human mAChR M4 (Homo sapiens, UniProt P08173)
# T1 construct: expressed in transfected cells; host or cells: CHO-K1 (ATCC), stably co-expressing chimeric G protein Gqi5
# T1 sequence (P08173 1-479): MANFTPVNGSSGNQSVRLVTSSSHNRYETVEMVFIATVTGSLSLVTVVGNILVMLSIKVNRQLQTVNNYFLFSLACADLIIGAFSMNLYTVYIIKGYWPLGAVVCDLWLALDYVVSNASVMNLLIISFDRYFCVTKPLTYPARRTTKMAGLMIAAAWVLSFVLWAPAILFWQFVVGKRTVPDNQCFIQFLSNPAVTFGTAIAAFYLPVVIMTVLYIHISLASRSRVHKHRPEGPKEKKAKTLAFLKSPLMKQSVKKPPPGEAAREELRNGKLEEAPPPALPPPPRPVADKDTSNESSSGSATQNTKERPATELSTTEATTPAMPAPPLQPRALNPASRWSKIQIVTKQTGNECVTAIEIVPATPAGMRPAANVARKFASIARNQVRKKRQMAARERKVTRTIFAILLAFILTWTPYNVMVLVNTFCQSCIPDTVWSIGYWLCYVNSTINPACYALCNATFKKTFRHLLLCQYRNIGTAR
# Assay: mAChR M4 cell-based functional assay (calcium mobilization, EC80 acetylcholine), human M4
# Settings: for Emin: human M4, % ACh maximum at 30 μM
# In short: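 CHO-K1 cells stably expressing human M4 with chimeric Gqi5; intracellular calcium rise read on FDSS as fluorescence static ratio at 1 Hz. Compounds in 10-point 1:3 dilution series; IC50 taken as concentration-dependent decrease of the EC80 acetylcholine response, four-parameter logistic fit.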
# [1] = Table 9, M4/Gqi5/CHO-K1 cells, decrease of EC80 acetylcholine response
# [2] = Table 10, M4/Gqi5/CHO-K1 cells, decrease of EC80 acetylcholine response
SMILES,IC50 [1],Emin (Table 9),Human M4 Emin (Table 10),"IC50 (Table 10, μM)",IC50 [2]
"CC(=O)Nc1ccc(-c2ccc(N[C@@H]3C[C@@H]4CN(CCC(C)(C)C)C[C@@H]4C3)nn2)cc1 [Compound 39, N-[4-[6-[[(3aR,5r,6aS)-2-(3,3-Dimethylbutyl)-3,3a,4,5,6,6a-hexahydro-1H-cyclopenta[c]pyrrol-5-yl]amino]pyridazin-3-yl]phenyl]acetamide]",8.28 µM,26.8%,,,
"Cc1cnn(C)c1-c1ccc(OCC2C[C@@H]3CN(Cc4ccccc4F)C[C@@H]3C2)nn1 (stereo partly drawn) [Compound 87, (3aR,6aS)-5-[[6-(2,4-dimethylpyrazol-3-yl)pyridazin-3-yl]oxymethyl]-2-[(2-fluorophenyl)methyl]-3,3a,4,5,6,6a-hexahydro-1H-cyclopenta[c]pyrrole]",4.01 µM,7.39%,,,
"Cc1cccnc1CN1C[C@H]2C[C@H](CNc3ccc(-c4cn(C)nc4C)nn3)C[C@H]2C1 [Compound 73, N-[[(3aR,5s,6aS)-2-[(3-methyl-2-pyridyl)methyl]-3,3a,4,5,6,6a-hexahydro-1H-cyclopenta[c]pyrrol-5-yl]methyl]-6-(1,3-dimethylpyrazol-4-yl)pyridazin-3-amine]",2.01 µM,9.23%,,,
"c1ccc(-c2cnc(N[C@H]3C[C@@H]4CN(Cc5ccncc5)C[C@@H]4C3)s2)cc1 [Compound 231, N-[(3aR,5s,6aS)-2-(4-pyridylmethyl)-3,3a,4,5,6,6a-hexahydro-1H-cyclopenta[c]pyrrol-5-yl]-5-phenyl-thiazol-2-amine]",,,68%,> 10 µM,
"Cc1nn(C)cc1-c1ccc(N[C@@H]2C[C@@H]3CN(CC4CCCCCC4)C[C@@H]3C2)c(F)c1F [Compound 44, (3aR,5r,6aS)-2-(cycloheptylmethyl)-N-[4-(1,3-dimethylpyrazol-4-yl)-2,3-difluoro-phenyl]-3,3a,4,5,6,6a-hexahydro-1H-cyclopenta[c]pyrrol-5-amine]",2.15 µM,5.01%,,,
"c1cnc2ccc(-c3ccc(N[C@H]4C[C@@H]5CN(CC6CCOCC6)C[C@@H]5C4)nn3)cc2c1 [Compound 181, (3aR,5s,6aS)-N-[6-(6-quinolyl)pyridazin-3-yl]-2-(tetrahydropyran-4-ylmethyl)-3,3a,4,5,6,6a-hexahydro-1H-cyclopenta[c]pyrrol-5-amine]",,,4%,,0.00142 µM
"Fc1ccc(Cl)c(-c2ccc(N[C@H]3C[C@@H]4CN(Cc5cccnc5)C[C@@H]4C3)nn2)c1 [Compound 161, (3aR,5s,6aS)-N-[6-(2-chloro-5-fluoro-phenyl)pyridazin-3-yl]-2-(3-pyridylmethyl)-3,3a,4,5,6,6a-hexahydro-1H-cyclopenta[c]pyrrol-5-amine]",,,5%,,0.0541 µM
"Cc1cccnc1CN1C[C@H]2C[C@@H](Oc3ccc(-c4cc(F)ccc4Cl)nn3)C[C@H]2C1 [Compound 58, (3aR,5r,6aS)-5-[6-(2-chloro-5-fluoro-phenyl)pyridazin-3-yl]oxy-2-[(3-methyl-2-pyridyl)methyl]-3,3a,4,5,6,6a-hexahydro-1H-cyclopenta[c]pyrrole]",1.46 µM,6.11%,,,
"Cc1cnn(C)c1-c1ccc(NCCC2C[C@@H]3CN(CC4CCOCC4)C[C@@H]3C2)nn1 (stereo partly drawn) [Compound 125, N-[2-[(3aR,6aS)-2-(tetrahydropyran-4-ylmethyl)-3,3a,4,5,6,6a-hexahydro-1H-cyclopenta[c]pyrrol-5-yl]ethyl]-6-(2,4-dimethylpyrazol-3-yl)pyridazin-3-amine]",0.0287 µM,4.41%,,,
"CC1(CN2C[C@H]3C[C@H](Nc4ccc(-c5cc(F)ccc5Cl)nn4)C[C@H]3C2)COC1 [Compound 171, (3aR,5s,6aS)-N-[6-(2-chloro-5-fluoro-phenyl)pyridazin-3-yl]-2-[(3-methyloxetan-3-yl)methyl]-3,3a,4,5,6,6a-hexahydro-1H-cyclopenta[c]pyrrol-5-amine]",,,4%,,0.0843 µM
"Cc1nn(C)cc1-c1ccc(N[C@H]2C[C@@H]3CN(Cc4ccccc4)C[C@@H]3C2)nn1 [Compound 8, (3aR,5s,6aS)-2-benzyl-N-[6-(1,3-dimethylpyrazol-4-yl)pyridazin-3-yl]-3,3a,4,5,6,6a-hexahydro-1H-cyclopenta[c]pyrrol-5-amine]",0.01 µM,3.22%,,,
"CS(=O)(=O)Nc1cccc(-c2ccc(N[C@H]3C[C@@H]4CN(CC5CCOCC5)C[C@@H]4C3)nn2)c1 [Compound 217, N-[3-[6-[[(3aR,5s,6aS)-2-(tetrahydropyran-4-ylmethyl)-3,3a,4,5,6,6a-hexahydro-1H-cyclopenta[c]pyrrol-5-yl]amino]pyridazin-3-yl]phenyl]methanesulfonamide]",,,16%,,0.00738 µM
"Fc1ccc(Cl)c(-c2ccc(OCC3C[C@@H]4CN(Cc5ccccc5F)C[C@@H]4C3)nn2)c1 (stereo partly drawn) [Compound 115, (3aR,6aS)-5-[[6-(2-chloro-5-fluoro-phenyl)pyridazin-3-yl]oxymethyl]-2-[(2-fluorophenyl)methyl]-3,3a,4,5,6,6a-hexahydro-1H-cyclopenta[c]pyrrole]",5.66 µM,9.93%,,,
"Cc1cnn(C)c1-c1ccc(NCCC2C[C@@H]3CN(Cc4ccccc4)C[C@@H]3C2)nn1 (stereo partly drawn) [Compound 126, N-[2-[(3aR,6aS)-2-benzyl-3,3a,4,5,6,6a-hexahydro-1H-cyclopenta[c]pyrrol-5-yl]ethyl]-6-(2,4-dimethylpyrazol-3-yl)pyridazin-3-amine]",0.023 µM,3.89%,,,
"Cc1cccnc1CN1C[C@H]2C[C@H](CNc3ccc(-c4c(C)cnn4C)nn3)C[C@H]2C1 [Compound 68, N-[[(3aR,5s,6aS)-2-[(3-methyl-2-pyridyl)methyl]-3,3a,4,5,6,6a-hexahydro-1H-cyclopenta[c]pyrrol-5-yl]methyl]-6-(2,4-dimethylpyrazol-3-yl)pyridazin-3-amine]",0.618 µM,6.26%,,,
"Cc1noc(C)c1-c1ccc(N[C@H]2C[C@@H]3CN(CC4CCOCC4)C[C@@H]3C2)nn1 [Compound 210, (3aR,5s,6aS)-N-[6-(3,5-dimethylisoxazol-4-yl)pyridazin-3-yl]-2-(tetrahydropyran-4-ylmethyl)-3,3a,4,5,6,6a-hexahydro-1H-cyclopenta[c]pyrrol-5-amine]",,,26%,,0.0549 µM
"CC(=O)Nc1ccc(-c2ccc(N[C@H]3C[C@@H]4CN(CC5CCOCC5)C[C@@H]4C3)nn2)cc1 [Compound 180, N-[4-[6-[[(3aR,5s,6aS)-2-(tetrahydropyran-4-ylmethyl)-3,3a,4,5,6,6a-hexahydro-1H-cyclopenta[c]pyrrol-5-yl]amino]pyridazin-3-yl]phenyl]acetamide]",,,8%,,0.00117 µM
"c1cc2c(cc1-c1ccc(N[C@H]3C[C@@H]4CN(CC5CCOCC5)C[C@@H]4C3)nn1)OCO2 [Compound 182, (3aR,5s,6aS)-N-[6-(1,3-benzodioxol-5-yl)pyridazin-3-yl]-2-(tetrahydropyran-4-ylmethyl)-3,3a,4,5,6,6a-hexahydro-1H-cyclopenta[c]pyrrol-5-amine]",,,4%,,0.00187 µM
"Cc1cnn(C)c1-c1ccc(OCC2C[C@@H]3CN(Cc4ccc5c(c4)OCO5)C[C@@H]3C2)nn1 (stereo partly drawn) [Compound 91, (3aR,6aS)-2-(1,3-benzodioxol-5-ylmethyl)-5-[[6-(2,4-dimethylpyrazol-3-yl)pyridazin-3-yl]oxymethyl]-3,3a,4,5,6,6a-hexahydro-1H-cyclopenta[c]pyrrole]",0.371 µM,4.18%,,,
"Cc1nn(C)cc1-c1ccc(N[C@H]2C[C@@H]3CN(CC(C)C(C)(C)C)C[C@@H]3C2)nn1 (stereo partly drawn) [Compound 4, (3aR,5s,6aS)-N-[6-(1,3-dimethylpyrazol-4-yl)pyridazin-3-yl]-2-(2,3,3-trimethylbutyl)-3,3a,4,5,6,6a-hexahydro-1H-cyclopenta[c]pyrrol-5-amine]",0.002 µM,2.81%,,,
"c1nn(C2CC2)cc1-c1ccc(N[C@H]2C[C@@H]3CN(CC4CCOCC4)C[C@@H]3C2)nn1 [Compound 209, (3aR,5s,6aS)-N-[6-(1-cyclopropylpyrazol-4-yl)pyridazin-3-yl]-2-(tetrahydropyran-4-ylmethyl)-3,3a,4,5,6,6a-hexahydro-1H-cyclopenta[c]pyrrol-5-amine]",,,13%,,0.00441 µM
"Cc1nn(C)cc1-c1ccc(N[C@@H]2C[C@@H]3CN(CC4CCCCC4)C[C@@H]3C2)c(F)c1F [Compound 43, (3aR,5r,6aS)-2-(cyclohexylmethyl)-N-[4-(1,3-dimethylpyrazol-4-yl)-2,3-difluoro-phenyl]-3,3a,4,5,6,6a-hexahydro-1H-cyclopenta[c]pyrrol-5-amine]",1.21 µM,5.25%,,,
"Cc1nn(C)cc1-c1ccc(OCC2C[C@@H]3CN(Cc4ccccn4)C[C@@H]3C2)nn1 (stereo partly drawn) [Compound 103, (3aR,6aS)-5-[[6-(1,3-dimethylpyrazol-4-yl)pyridazin-3-yl]oxymethyl]-2-(2-pyridylmethyl)-3,3a,4,5,6,6a-hexahydro-1H-cyclopenta[c]pyrrole]",9.87 µM,14.7%,,,
